Like-named read-outs stand apart in the source and are kept apart here.
How the values were obtained:
[1] = system: TNF-α; assay: Bovine whole blood assay, LPS-induced TNF-α; type: cell-based; conditions: Bos taurus, fresh whole bovine blood, LPS 1 μg/mL
Method: (§1) (protected from light) for 30 minutes.

[2] = system: IL-1β; assay: Bovine whole blood assay, IL-1β; type: cell-based; conditions: overstimulation of IL-1β, perceived cellular toxicity concentration;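 also: compound concentration at which rising IL-1β release signals cytotoxicity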
Method: as §1

[3] = system: BRD pathogens, M. haemolytica and P. multocida; assay: MIC screening panel, BRD pathogens (CLSI broth micro-dilution)

| IC50 [1] | Compound | IL-1β OS of LPS [2] | MIC ([3]; read-out: MIC flag (*) at Ex #) | MIC ([3]; read-out: MIC flag (*) at Example #) |
| --- | --- | --- | --- | --- |
| 5 µM | CCNC[C@]1(O)[C@H](C)O[C@@H](O[C@H]2[C@H](C)[C@@H](O[C@@H]3O[C@H](C)C[C@H]4[C@H]3OC(C(F)(F)F)N4C)[C@](C)(O)C[C@@H](C)CN[C@H](C)[C@@H](O)[C@](C)(O)[C@@H](CC)OC(=O)[C@@H]2C)C[C@@]1(C)OC (stereo partly drawn) [Example A-5, (2R,3S,4R,5R,8R,10R,11R,12S,13S,14R)-11-(((3aR,4S,6R,7aS)-1,6-dimethyl-2-(trifluoromethyl)hexahydro-2H-pyrano[4,3-d]oxazol-4-yl)oxy)-2-ethyl-13-(((2R,4R,5S,6S)-5-((ethylamino)methyl)-5-hydroxy-4-methoxy-4,6-dimethyltetrahydro-2H-pyran-2-yl)oxy)-3,4,10-trihydroxy-3,5,8,10,12,14-hexamethyl-1-oxa-6-azacyclopentadecan-15-one] | 5 µM | – | – |
| 101 µM | CC[C@H]1OC(=O)[C@H](C)[C@@H](O[C@H]2C[C@@](C)(OC)[C@](O)(CNCc3ncc[nH]3)[C@H](C)O2)[C@H](C)[C@@H](O[C@@H]2O[C@H](C)C[C@H]3[C@H]2OC(C(F)(F)F)N3C)[C@](C)(O)C[C@@H](C)CN[C@H](C)[C@@H](O)[C@]1(C)O (stereo partly drawn) [Example A-11, (2R,3S,4R,5R,8R,10R,11R,12S,13S,14R)-13-(((2R,4R,5S,6S)-5-((((1H-imidazol-2-yl)methyl)amino)methyl)-5-hydroxy-4-methoxy-4,6-dimethyltetrahydro-2H-pyran-2-yl)oxy)-11-(((3aR,4S,6R,7aS)-1,6-dimethyl-2-(trifluoromethyl)hexahydro-2H-pyrano[4,3-d]oxazol-4-yl)oxy)-2-ethyl-3,4,10-trihydroxy-3,5,8,10,12,14-hexamethyl-1-oxa-6-azacyclopentadecan-15-one] | 40 µM | < 64 µg/mL | – |
| 18 µM | CC[C@H]1OC(=O)[C@H](C)[C@@H](O[C@H]2C[C@@](C)(OC)[C@](O)(CNCCS(=O)(=O)N(C)C)[C@H](C)O2)[C@H](C)[C@@H](O[C@@H]2O[C@H](C)C[C@H]3[C@H]2OC(C(F)(F)F)N3C)[C@](C)(O)C[C@@H](C)CN[C@H](C)[C@@H](O)[C@]1(C)O (stereo partly drawn) [Example A-13, 2-((((2S,3S,4R,6R)-6-(((2R,3S,4R,5R,8R,10R,11R,12S,13S,14R)-11-(((3aR,4S,6R,7aS)-1,6-dimethyl-2-(trifluoromethyl)hexahydro-2H-pyrano[4,3-d]oxazol-4-yl)oxy)-2-ethyl-3,4,10-trihydroxy-3,5,8,10,12,14-hexamethyl-15-oxo-1-oxa-6-azacyclopentadecan-13-yl)oxy)-3-hydroxy-4-methoxy-2,4-dimethyltetrahydro-2H-pyran-3-yl)methyl)amino)-N,N-dimethylethane-1-sulfonamide] | 40 µM | – | – |
| 30 µM | CC[C@H]1OC(=O)[C@H](C)[C@@H](O[C@H]2C[C@@](C)(OC)[C@](O)(CNCCn3cncn3)[C@H](C)O2)[C@H](C)[C@@H](O[C@@H]2O[C@H](C)C[C@H]3[C@H]2OC(C(F)(F)F)N3C)[C@](C)(O)C[C@@H](C)CN[C@H](C)[C@@H](O)[C@]1(C)O (stereo partly drawn) [Example A-14, (2R,3S,4R,5R,8R,10R,11R,12S,13S,14R)-13-(((2R,4R,5S,6S)-5-(((2-(1H-1,2,4-triazol-1-yl)ethyl)amino)methyl)-5-hydroxy-4-methoxy-4,6-dimethyltetrahydro-2H-pyran-2-yl)oxy)-11-(((3aR,4S,6R,7aS)-1,6-dimethyl-2-(trifluoromethyl)hexahydro-2H-pyrano[4,3-d]oxazol-4-yl)oxy)-2-ethyl-3,4,10-trihydroxy-3,5,8,10,12,14-hexamethyl-1-oxa-6-azacyclopentadecan-15-one] | 40 µM | < 64 µg/mL | – |
| 28 µM | CC[C@H]1OC(=O)[C@H](C)[C@@H](O[C@H]2C[C@@](C)(OC)[C@](O)(CNCCOCCO)[C@H](C)O2)[C@H](C)[C@@H](O[C@@H]2O[C@H](C)C[C@H]3[C@H]2OC(C(F)(F)F)N3C)[C@](C)(O)C[C@@H](C)CN[C@H](C)[C@@H](O)[C@]1(C)O (stereo partly drawn) [Example A-16, (2R,3S,4R,5R,8R,10R,11R,12S,13S,14R)-11-(((3aR,4S,6R,7aS)-1,6-dimethyl-2-(trifluoromethyl)hexahydro-2H-pyrano[4,3-d]oxazol-4-yl)oxy)-2-ethyl-3,4,10-trihydroxy-13-(((2R,4R,5S,6S)-5-hydroxy-5-(((2-(2-hydroxyethoxy)ethyl)amino)methyl)-4-methoxy-4,6-dimethyltetrahydro-2H-pyran-2-yl)oxy)-3,5,8,10,12,14-hexamethyl-1-oxa-6-azacyclopentadecan-15-one] | 40 µM | – | – |
| – | CC[C@H]1OC(=O)[C@H](C)[C@@H](O[C@H]2C[C@@](C)(OC)[C@](O)(CNCCC(=O)N(C)C)[C@H](C)O2)[C@H](C)[C@@H](O[C@@H]2O[C@H](C)C[C@H]3[C@H]2OC(C(F)(F)F)N3C)[C@](C)(O)C[C@@H](C)CN[C@H](C)[C@@H](O)[C@]1(C)O (stereo partly drawn) [Example A-17, 3-((((2S,3S,4R,6R)-6-(((2R,3S,4R,5R,8R,10R,11R,12S,13S,14R)-11-(((3aR,4S,6R,7aS)-1,6-dimethyl-2-(trifluoromethyl)hexahydro-2H-pyrano[4,3-d]oxazol-4-yl)oxy)-2-ethyl-3,4,10-trihydroxy-3,5,8,10,12,14-hexamethyl-15-oxo-1-oxa-6-azacyclopentadecan-13-yl)oxy)-3-hydroxy-4-methoxy-2,4-dimethyltetrahydro-2H-pyran-3-yl)methyl)amino)-N,N-dimethylpropanamide] | – | < 64 µg/mL | – |
| – | CC[C@H]1OC(=O)[C@H](C)[C@@H](O[C@H]2C[C@@](C)(OC)[C@](O)(CNCC3CCN(C(C)=O)CC3)[C@H](C)O2)[C@H](C)[C@@H](O[C@@H]2O[C@H](C)C[C@H]3[C@H]2OC(C(F)(F)F)N3C)[C@](C)(O)C[C@@H](C)CN[C@H](C)[C@@H](O)[C@]1(C)O (stereo partly drawn) [Example A-18, (2R,3S,4R,5R,8R,10R,11R,12S,13S,14R)-13-(((2R,4R,5S,6S)-5-((((1-acetylpiperidin-4-yl)methyl)amino)methyl)-5-hydroxy-4-methoxy-4,6-dimethyltetrahydro-2H-pyran-2-yl)oxy)-11-(((3aR,4S,6R,7aS)-1,6-dimethyl-2-(trifluoromethyl)hexahydro-2H-pyrano[4,3-d]oxazol-4-yl)oxy)-2-ethyl-3,4,10-trihydroxy-3,5,8,10,12,14-hexamethyl-1-oxa-6-azacyclopentadecan-15-one] | – | < 64 µg/mL | – |
| – | CC[C@H]1OC(=O)[C@H](C)[C@@H](O[C@H]2C[C@@](C)(OC)[C@](O)(CNCCn3ccccc3=O)[C@H](C)O2)[C@H](C)[C@@H](O[C@@H]2O[C@H](C)C[C@H]3[C@H]2OC(C(F)(F)F)N3C)[C@](C)(O)C[C@@H](C)CN[C@H](C)[C@@H](O)[C@]1(C)O (stereo partly drawn) [Example A-19, (2R,3S,4R,5R,8R,10R,11R,12S,13S,14R)-11-(((3aR,4S,6R,7aS)-1,6-dimethyl-2-(trifluoromethyl)hexahydro-2H-pyrano[4,3-d]oxazol-4-yl)oxy)-2-ethyl-3,4,10-trihydroxy-13-(((2R,4R,5S,6S)-5-hydroxy-4-methoxy-4,6-dimethyl-5-(((2-(2-oxopyridin-1(2H)-yl)ethyl)amino)methyl)tetrahydro-2H-pyran-2-yl)oxy)-3,5,8,10,12,14-hexamethyl-1-oxa-6-azacyclopentadecan-15-one] | – | < 64 µg/mL | – |
| 141 µM | CC[C@H]1OC(=O)[C@H](C)[C@@H](O[C@H]2C[C@@](C)(OC)[C@](O)(CNCCS(N)(=O)=O)[C@H](C)O2)[C@H](C)[C@@H](O[C@@H]2O[C@H](C)C[C@H]3[C@H]2OC(C(F)(F)F)N3C)[C@](C)(O)C[C@@H](C)CN[C@H](C)[C@@H](O)[C@]1(C)O (stereo partly drawn) [Example A-20, 2-((((2S,3S,4R,6R)-6-(((2R,3S,4R,5R,8R,10R,11R,12S,13S,14R)-11-(((3aR,4S,6R,7aS)-1,6-dimethyl-2-(trifluoromethyl)hexahydro-2H-pyrano[4,3-d]oxazol-4-yl)oxy)-2-ethyl-3,4,10-trihydroxy-3,5,8,10,12,14-hexamethyl-15-oxo-1-oxa-6-azacyclopentadecan-13-yl)oxy)-3-hydroxy-4-methoxy-2,4-dimethyltetrahydro-2H-pyran-3-yl)methyl)amino)ethane-1-sulfonamide] | 100 µM | – | – |
| – | CCCNC[C@]1(O)[C@H](C)O[C@@H](O[C@H]2[C@H](C)[C@@H](O[C@@H]3O[C@H](C)C[C@H]4[C@H]3OC(C(F)(F)F)N4C)[C@](C)(O)C[C@@H](C)CN(C)[C@H](C)[C@@H](O)[C@](C)(O)[C@@H](CC)OC(=O)[C@@H]2C)C[C@@]1(C)OC (stereo partly drawn) [Example A-26, (2R,3S,4R,5R,8R,10R,11R,12S,13S,14R)-11-(((3aR,4S,6R,7aS)-1,6-dimethyl-2-(trifluoromethyl)hexahydro-2H-pyrano[4,3-d]oxazol-4-yl)oxy)-2-ethyl-3,4,10-trihydroxy-13-(((2R,4R,5S,6S)-5-hydroxy-4-methoxy-4,6-dimethyl-5-((propylamino)methyl)tetrahydro-2H-pyran-2-yl)oxy)-3,5,6,8,10,12,14-heptamethyl-1-oxa-6-azacyclopentadecan-15-one] | – | < 64 µg/mL | – |
| – | CC[C@H]1OC(=O)[C@H](C)[C@@H](O[C@H]2C[C@@](C)(OC)[C@@H](O)[C@H](C)O2)[C@H](C)[C@@H](O[C@@H]2O[C@H](C)C[C@H]3[C@H]2OC(C(F)(F)F)N3C)[C@](C)(O)C[C@@H](C)CN(C)[C@H](C)[C@@H](O)[C@]1(C)O (stereo partly drawn) [Example C-1, (2R,3S,4R,5R,8R,10R,11R,12S,13S,14R)-11-(((3aR,4S,6R,7aS)-1,6-dimethyl-2-(trifluoromethyl)hexahydro-2H-pyrano[4,3-d]oxazol-4-yl)oxy)-2-ethyl-3,4,10-trihydroxy-13-(((2R,4R,5S,6S)-5-hydroxy-4-methoxy-4,6-dimethyltetrahydro-2H-pyran-2-yl)oxy)-3,5,6,8,10,12,14-heptamethyl-1-oxa-6-azacyclopentadecan-15-one] | – | – | < 64 µg/mL |
